# From US9540343B2 (Gilead Sciences, Inc., priority 2011, dated 2017)
# Assays:
# in vitro = conditions: human, uninfected MT-4 cells, CC50 (nM), same protocol as Test A, CellTiter-Glo
# Protocol: For the antiviral assay, 40 μL of 1× test concentration of 3-fold serially diluted compound in culture medium with 10% FBS was added to each well of a 384-well plate (10 concentrations) in quadruplicate. MT-4 cells were next mixed with HIV-IIIb at an m.o.i of 0.003 for 1 hour, after which time 35 μL of virus/cell mixture (2000 cells) was immediately added to each well containing 40 μL of diluted compound. The plates were then incubated at 37° C. for 5 days. After 5 days of incubation, 25 μl of 2× concentrated CellTiter-Glo™ Reagent (catalog #G7571, Promega Biosciences, Inc., Madison, Wis.) was added to each well containing MT-4 cells. Cell lysis was carried out by incubating at room temperature for 10 min and then chemiluminescence was read.
# Test B: Cytotoxicity Assay
# Compound cytotoxicity and the corresponding CC50 values was determined using the same protocol as described in the antiviral assay (Test A) except that uninfected cells were used.
# HIV-IIIb = test: Test A: Antiviral assay in MT4 cells; type: cell-based, HIV-1; conditions: Human immunodeficiency virus 1, IIIB, MT4, 120 h, read-out: % inhibition at 2 μM, percent inhibition of virus-induced cell killing, from dose response curve at 2 uM drug; MT-4 cells infected with HIV-IIIb, 5 days, CellTiter-Glo
SMILES,CC50 at 5 days (in vitro),inhibition at 2 µM (HIV-IIIb)
"CN(C)CCNC(=O)c1cccc(-c2cccnc2[C@H](Cc2cc(F)cc(F)c2)NC(=O)Cn2nc(C(F)(F)F)c3c2CCCC3)c1 [Example 401C, (S)-3-(2-(2-(3,5-difluorophenyl)-1-(2-(3-(trifluoromethyl)-4,5,6,7-tetrahydro-1H-indazol-1-yl)acetamido)ethyl)pyridin-3-yl)-N-(2-(dimethylamino)ethyl)benzamide]",9720 nM,87%
"NC(=O)c1cc(-c2cccnc2[C@H](Cc2cc(F)cc(F)c2)NC(=O)Cc2c[nH]c3cc(F)c(F)cc23)ccc1F [Example 533E, (S)-5-(2-(1-(2-(5,6-difluoro-1H-indol-3-yl)acetamido)-2-(3,5-difluorophenyl)ethyl)pyridin-3-yl)-2-fluorobenzamide]",19300 nM,142%
"NC(=O)c1cc(-c2cccnc2[C@H](Cc2cc(F)cc(F)c2)NC(=O)Cn2nc(C(F)(F)F)c3cc(F)ccc32)ccc1F [Example 271B, (S)-5-(2-(2-(3,5-difluorophenyl)-1-(2-(5-fluoro-3-(trifluoromethyl)-1H-indazol-1-yl)acetamido)ethyl)pyridin-3-yl)-2-fluorobenzamide]",11400 nM,15%
"O=C(Cn1nc(C(F)F)c2c1C(F)(F)C1CC21)N[C@@H](Cc1cc(F)cc(F)c1)c1ncncc1-c1ccc2cnccc2c1 (stereo partly drawn) [Example 131C, 2-(3-(difluoromethyl)-5,5-difluoro-3b,4,4a,5-tetrahydro-1H-cyclopropa[3,4]cyclopenta[1,2-c]pyrazol-1-yl)-N—((S)-2-(3,5-difluorophenyl)-1-(5-(isoquinolin-6-yl)pyrimidin-4-yl)ethyl)acetamide]",10400 nM,47%
"CS(=O)(=O)c1cccc(-c2cccnc2[C@H](Cc2cc(F)cc(F)c2)NC(=O)Cn2nc(C(F)(F)F)c3c2CCCC3)c1 [Example 57B, (S)—N-(2-(3,5-difluorophenyl)-1-(3-(3-(methylsulfonyl)phenyl)pyridin-2-yl)ethyl)-2-(3-(trifluoromethyl)-4,5,6,7-tetrahydro-1H-indazol-1-yl)acetamide]",13300 nM,98%
"NC(=O)c1cc(-c2cccnc2[C@H](Cc2cc(F)cc(F)c2)NC(=O)Cc2c[nH]c3ccc(F)cc23)ccn1 [Example 294, (S)-2-(2-(3,5-difluorophenyl)-1-(2-(5-fluoro-1H-indol-3-yl)acetamido)ethyl)-3,4′-bipyridine-2′-carboxamide]",20500 nM,114%
"Cc1ccccc1-c1ccnc(C(Cc2cc(F)cc(F)c2)NC(=O)Cc2c[nH]c3ccc(O)cc23)n1 (stereo not shown) [Example 11, N-(2-(3,5-difluorophenyl)-1-(4-o-tolylpyrimidin-2-yl)ethyl)-2-(5-hydroxy-1H-indol-3-yl)acetamide]",35700 nM,0%
"Cc1ccccc1-c1ccnc(C(Cc2cc(F)cc(F)c2)NC(=O)Cn2nc(C(F)(F)F)c3c2CCCC3)n1 (stereo not shown) [Example 12, N-(2-(3,5-difluorophenyl)-1-(4-o-tolylpyrimidin-2-yl)ethyl)-2-(3-(trifluoromethyl)-4,5,6,7-tetrahydro-1H-indazol-1-yl)acetamide]",8980 nM,0%
"NC(=O)c1cccc(-c2cccnc2[C@H](Cc2cc(F)cc(F)c2)NC(=O)C2CC23C(=O)Nc2ccccc23)c1 (stereo partly drawn) [Example 225, N—((S)-1-(3-(3-carbamoylphenyl)pyridin-2-yl)-2-(3,5-difluorophenyl)ethyl)-2′-oxospiro[cyclopropane-1,3′-indoline]-2-carboxamide]",23000 nM,15%
"NC(=O)c1cc(-c2cccnc2[C@H](Cc2cc(F)cc(F)c2)NC(=O)Cn2nc(C(F)F)c3c2CC2CC32)ccc1F (stereo partly drawn) [Example 198, 5-(2-((1S)-1-(2-(3-(difluoromethyl)-3b,4,4a,5-tetrahydro-1H-cyclopropa[3,4]cyclopenta[1,2-c]pyrazol-1-yl)acetamido)-2-(3,5-difluorophenyl)ethyl)pyridin-3-yl)-2-fluorobenzamide]",45900 nM,112%
"O=C(Cc1c[nH]c2ccc(F)cc12)N[C@@H](Cc1cc(F)cc(F)c1)c1ncccc1-c1ccc(OC(F)(F)F)cc1 [Example 431, (S)—N-(2-(3,5-difluorophenyl)-1-(3-(4-(trifluoromethoxy)phenyl)pyridin-2-yl)ethyl)-2-(5-fluoro-1H-indol-3-yl)acetamide]",6390 nM,7%
"CCOc1nn(CC(=O)N[C@@H](Cc2cc(F)cc(F)c2)c2ncccc2-c2ccc(F)c(C(N)=O)c2)c2c1CCCC2 [Example 179C, (S)-5-(2-(2-(3,5-difluorophenyl)-1-(2-(3-ethoxy-4,5,6,7-tetrahydro-1H-indazol-1-yl)acetamido)ethyl)pyridin-3-yl)-2-fluorobenzamide]",22300 nM,52%
"O=C(Cn1nc(C(F)F)c2c1C(F)(F)C1CC21)N[C@@H](Cc1cc(F)cc(F)c1)c1ncccc1-c1ccc(OCC2CC2)cc1 (stereo partly drawn) [Example 206, N—((S)-1-(3-(4-(cyclopropylmethoxy)phenyl)pyridin-2-yl)-2-(3,5-difluorophenyl)ethyl)-2-(3-(difluoromethyl)-5,5-difluoro-3b,4,4a,5-tetrahydro-1H-cyclopropa[3,4]cyclopenta[1,2-c]pyrazol-1-yl)acetamide]",20000 nM,54%
"O=C1Cc2c(cccc2-c2cccnc2[C@H](Cc2cc(F)cc(F)c2)NC(=O)Cn2nc(C(F)F)c3c2C(F)(F)CCC3(F)F)N1 [Example 489D, (S)-2-(3-(difluoromethyl)-4,4,7,7-tetrafluoro-4,5,6,7-tetrahydro-1H-indazol-1-yl)-N-(2-(3,5-difluorophenyl)-1-(3-(2-oxoindolin-4-yl)pyridin-2-yl)ethyl)acetamide]",20800 nM,97%
"O=C(Cn1nc(C(F)F)c2c1C(F)(F)C1CC21)N[C@@H](Cc1cc(F)cc(F)c1)c1ncccc1-c1ccc2nccnc2c1 (stereo partly drawn) [Example 415, (S)—N-(1-(3-(quinoxalin-6-yl)-pyridin-2-yl)-2-(3,5-difluorophenyl)ethyl)-2-(3-(difluoromethyl)-5,6-dihydro-4,5-(methano)-6,6-difluoro-cyclopenta[c]pyrazol-1(4H)-yl)acetamide]",38000 nM,39%
"Cc1ccc2c(c1)NC(=O)C2CC(=O)N[C@@H](Cc1cc(F)cc(F)c1)c1ncccc1-c1ccc(F)c(C(N)=O)c1 (stereo partly drawn) [Example 255, 5-(2-((1S)-2-(3,5-difluorophenyl)-1-(2-(6-methyl-2-oxoindolin-3-yl)acetamido)ethyl)pyridin-3-yl)-2-fluorobenzamide]",> 53200 nM,1%
"CCOc1ccc(-c2cccnc2[C@H](Cc2cc(F)cc(F)c2)NC(=O)Cn2nc(C(F)F)c3c2C(F)(F)C2CC32)cc1 (stereo partly drawn) [Example 247, 2-(3-(difluoromethyl)-5,5-difluoro-3b,4,4a,5-tetrahydro-1H-cyclopropa[3,4]cyclopenta[1,2-c]pyrazol-1-yl)-N—((S)-2-(3,5-difluorophenyl)-1-(3-(4-ethoxyphenyl)pyridin-2-yl)ethyl)acetamide]",26300 nM,39%
